Test results reported in patent publication US20160243023A1, “Novel Skin Remodeling Strategy” (ELC MANAGEMENT LLC, priority 2015, published 2016).

How the values were obtained:
[1] = system: human dermal fibroblasts (HDFs); experiment: Glycated collagen phagocytosis by HDFs (Phagocytosis Index); format: cell-based; conditions: beads pre-treated overnight with methylglyoxal; 3 hours incubation with HDFs
Procedure: • 1. On day 1, HDFs were plated in 24 well plates. • 2. On day 2, HDFs, after reaching confluence, were maintained for 48 hours under starvation conditions. • 3. On day 4, HDFs were incubated for 3 hours with collagen-coated microspheres (2×10^6 beads) as control or with collagen-coated microspheres (2×10^6 beads) that had been pre-treated overnight with glycation inducer, methylglyoxal. HDFs were then washed with PBS to remove unbound and loosely bound beads. • 4. Cell viability was measured using Presto Blue reagent; phagocytosis was measured by the determination of the fluorescence reading of internalized beads, using the procedure described above in Example 1. Results, shown in FIG. 11, are expressed as Phagocytosis Index (i.e., the ratio of the phagocytosis fluorescent signal divided by the viability signal).

[2] = system: human dermal fibroblasts (HDFs); experiment: TGFβ1-induced collagen synthesis in HDF after pretreatment with inducers of collagen phagocytosis (PIP EIA); format: cell-based; conditions: TGFβ1 used alone at 0.25 ng/ml, 72 hours
Procedure: • 1. On day 1, HDFs were plated in 96 well plates. • 2. On day 2, HDFs, after reaching confluence, were treated with medium (control) or with actives (test materials previously found by the inventors to be phagocytosis enhancers*; data not shown) under starvation conditions for 48 hours (step 1). • 3. On day 4, the actives were removed and the cells were treated with medium or with a collagen inducer, 0.25 ng/ml TGFβ1 in medium, for 72 hours (step 2). • 4. On day 7, medium was collected and analyzed for collagen release using a PIP EIA. The amount of PIP (pro-collagen ng/ml medium) is quantitated by measuring the absorbance using an EIA plate reader. Accurate sample concentrations of PIP can be determined by comparing the specific absorbances to a standard curve. Cell viability also was assessed using a standard 3-(4,5-dimethylthiazol-2-yl)-2,5-diphenyltetrazoliumbromide (MTT) assay. The assay involves the conversion of the water soluble MTT, a yellow tetrazole, to an insoluble purple formazan in living cells. The formazan is then solubilized and the concentration determined by measuring the absorbance at a wavelength of from about 500-600 nm using a spectrophotometer. […]

| Molecule | uptake by HDFs of pre-treated collagen-coated beads versus beads coated with unmodified collagen (Phagocytosis Index) [1] | increase in collagen synthesis compared with the non-treated control [2] |
| --- | --- | --- |
| CC(=O)C=O [methylglyoxal] | substantially the same rate | – |
| TGFβ1: Transforming Growth Factor Beta 1, collagen inducer | – | 30% |
